Tests used:
Experiment in all cases: relative viability (nuclei count vs DMSO), 5 days (fraction); higher = more cells survive
[1] = compound: CO[C@H]1C[C@@H]2CC[C@@H](C)[C@@](O)(O2)C(=O)C(=O)N2CCCC[C@H]2C(=O)O[C@H]([C@H](C)C[C@@H]2CC[C@@H](OCCO)[C@H](OC)C2)CC(=O)[C@H](C)/C=C(\C)[C@@H](O)[C@@H](OC)C(=O)[C@H](C)C[C@H](C)/C=C/C=C/C=C/1C [Everolimus] + C[C@@H](Oc1cc(-c2cnn(C3CCNCC3)c2)cnc1N)c1c(Cl)ccc(F)c1Cl [Crizotinib] (partner 1 µM)
How it was run: (§1)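 Lung cancer cell lines, seeded in 1536-well plates, were treated the following day by pin tool with a single drug or with five library-drug doses (not always all listed) in √10 steps on top of a fixed anchor-drug dose. Cells were fixed and nuclei stained in one step after 5 days, and nuclei were counted. Relative viability is the nuclei count for treated wells divided by that for vehicle wells, reported as medians of duplicate plates.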

[2] = compound: CO[C@H]1C[C@@H]2CC[C@@H](C)[C@@](O)(O2)C(=O)C(=O)N2CCCC[C@H]2C(=O)O[C@H]([C@H](C)C[C@@H]2CC[C@@H](OCCO)[C@H](OC)C2)CC(=O)[C@H](C)/C=C(\C)[C@@H](O)[C@@H](OC)C(=O)[C@H](C)C[C@H](C)/C=C/C=C/C=C/1C [Everolimus] + Cc1cc(Nc2cc(N3CCN(C)CC3)nc(Sc3ccc(NC(=O)C4CC4)cc3)n2)n[nH]1 [Tozasertib] (partner 0.1 µM)
How it was run: as §1

[3] = compound: CO[C@H]1C[C@@H]2CC[C@@H](C)[C@@](O)(O2)C(=O)C(=O)N2CCCC[C@H]2C(=O)O[C@H]([C@H](C)C[C@@H]2CC[C@@H](OCCO)[C@H](OC)C2)CC(=O)[C@H](C)/C=C(\C)[C@@H](O)[C@@H](OC)C(=O)[C@H](C)C[C@H](C)/C=C/C=C/C=C/1C [Everolimus] + CS(=O)(=O)CCNCc1ccc(-c2ccc3ncnc(Nc4ccc(OCc5cccc(F)c5)c(Cl)c4)c3c2)o1 [Lapatinib] (partner 2 µM)
How it was run: as §1

[4] = compound: CO[C@H]1C[C@@H]2CC[C@@H](C)[C@@](O)(O2)C(=O)C(=O)N2CCCC[C@H]2C(=O)O[C@H]([C@H](C)C[C@@H]2CC[C@@H](OCCO)[C@H](OC)C2)CC(=O)[C@H](C)/C=C(\C)[C@@H](O)[C@@H](OC)C(=O)[C@H](C)C[C@H](C)/C=C/C=C/C=C/1C [Everolimus] + Nc1ncn([C@H]2C[C@H](O)[C@@H](CO)O2)c(=O)n1 [Decitabine] (partner 2 µM)
How it was run: as §1

Cell Line	relative viability ([1]; first compound 0.01 µM)	relative viability ([1]; first compound 0.03162 µM)	relative viability ([1]; first compound 0.1 µM)	relative viability ([1]; first compound 0.3162 µM)	relative viability ([1]; first compound 1 µM)	relative viability ([2]; first compound 0.01 µM)	relative viability ([2]; first compound 0.03162 µM)	relative viability ([2]; first compound 0.1 µM)	relative viability ([2]; first compound 0.3162 µM)	relative viability ([2]; first compound 1 µM)	relative viability ([3]; first compound 0.01 µM)	relative viability ([3]; first compound 0.03162 µM)	relative viability ([3]; first compound 0.1 µM)	relative viability ([3]; first compound 0.3162 µM)	relative viability ([3]; first compound 1 µM)	relative viability ([4]; first compound 0.01 µM)	relative viability ([4]; first compound 0.03162 µM)	relative viability ([4]; first compound 0.1 µM)	relative viability ([4]; first compound 0.3162 µM)	relative viability ([4]; first compound 1 µM)
201T	0.945	0.984	0.926	0.962	0.977	0.898	0.913	0.801	0.843	0.906	0.911	1	0.852	0.882	0.938	0.758	0.757	0.635	0.705	0.716
A549	0.416	0.415	0.306	0.401	0.369	–	–	–	–	–	0.682	0.5	0.444	0.485	0.444	0.193	0.194	0.179	0.174	0.193
A-427	0.776	0.768	0.745	0.704	0.675	0.17	0.164	0.203	0.184	0.19	0.811	0.902	0.645	0.768	0.85	0.436	0.509	0.45	0.486	0.561
ABC-1	0.74	0.799	0.709	0.584	0.761	0.183	0.172	0.163	0.193	0.208	0.925	1.13	0.751	0.816	0.873	0.637	–	0.603	–	0.883
BEN	0.573	0.391	0.311	0.387	0.328	0.462	0.452	0.491	0.415	0.354	0.366	0.302	0.28	0.34	0.377	0.574	0.412	0.546	0.442	0.583
CAL-12T	0.432	0.569	0.233	0.401	0.265	0.173	0.217	0.212	0.167	0.182	0.483	0.426	0.33	0.463	0.433	–	–	–	–	–
COR-L23	0.515	0.597	0.623	0.666	0.635	0.334	0.324	0.288	0.255	0.233	0.744	0.829	0.804	1.01	0.918	0.312	0.308	0.325	0.369	0.323
COR-L 105	0.549	0.642	0.469	0.544	0.49	0.312	0.305	0.332	0.346	0.292	0.351	0.288	0.316	0.38	0.262	0.516	0.529	0.522	0.502	0.548
Calu-6	0.808	0.692	0.642	0.674	0.748	–	–	–	–	–	0.987	1.02	0.907	0.927	0.994	–	–	–	–	–
ChaGo-K-1	1.04	1.2	1.07	1.02	1.14	0.226	0.208	0.215	0.215	0.238	–	–	–	–	–	0.5	0.478	0.461	0.419	0.458
EBC-1	0.188	0.17	0.152	0.206	0.185	–	–	–	–	–	0.23	0.218	0.208	0.184	0.25	–	–	–	–	–
EKVX	0.718	0.656	0.684	0.721	0.75	0.327	0.333	0.214	0.257	0.259	0.158	0.161	0.159	0.171	0.161	–	0.245	0.226	0.226	0.371
EMC-BAC-2	0.562	0.546	0.485	0.504	0.535	0.289	0.296	0.244	0.258	0.266	0.675	0.563	0.49	0.571	0.517	0.743	0.81	0.659	–	0.755
EPLC-272H	0.68	0.573	0.542	0.512	0.601	0.19	0.286	0.176	0.242	0.216	0.615	0.73	0.543	0.605	0.587	0.312	0.291	0.259	0.306	0.327
H3255	0.575	0.505	0.498	0.555	0.527	0.597	0.55	0.412	0.462	0.402	0.249	0.238	0.266	0.212	0.225	0.409	0.433	0.322	0.371	0.315
HARA	1	1.12	0.928	0.986	0.952	0.226	0.126	–	0.116	0.293	0.546	0.468	0.541	0.714	0.526	0.451	0.426	0.426	0.572	0.474
HCC-15	0.931	0.887	0.791	0.829	0.75	0.483	0.457	0.437	0.365	0.272	0.899	0.899	0.881	0.981	0.871	0.597	0.463	0.511	0.604	0.482
HCC-44	0.912	0.935	0.774	0.86	0.677	1.07	1.07	0.94	0.97	1.19	1.01	1.11	1.12	1.01	0.938	0.933	0.975	0.937	0.954	0.896

Cell Line	relative viability ([1]; first compound 0.01 µM)	relative viability ([1]; first compound 0.03162 µM)	relative viability ([1]; first compound 0.1 µM)	relative viability ([1]; first compound 0.3162 µM)	relative viability ([1]; first compound 1 µM)	relative viability ([2]; first compound 0.01 µM)	relative viability ([2]; first compound 0.03162 µM)	relative viability ([2]; first compound 0.1 µM)	relative viability ([2]; first compound 0.3162 µM)	relative viability ([2]; first compound 1 µM)	relative viability ([3]; first compound 0.01 µM)	relative viability ([3]; first compound 0.03162 µM)	relative viability ([3]; first compound 0.1 µM)	relative viability ([3]; first compound 0.3162 µM)	relative viability ([3]; first compound 1 µM)	relative viability ([4]; first compound 0.01 µM)	relative viability ([4]; first compound 0.03162 µM)	relative viability ([4]; first compound 0.1 µM)	relative viability ([4]; first compound 0.3162 µM)	relative viability ([4]; first compound 1 µM)
HCC-78	0.315	0.261	0.265	0.259	0.298	0.361	0.428	0.406	0.426	0.454	0.633	1.28	0.521	0.36	0.534	0.593	0.605	0.636	0.643	0.603
HCC-366	0.433	0.441	0.526	0.295	0.372	0.097	0.102	0.347	0.0539	0.0447	0.89	1.11	0.994	0.992	0.589	0.301	0.226	0.257	0.291	0.212
HCC-827	0.947	0.831	0.852	0.998	0.839	0.451	0.417	0.404	0.378	0.366	0.191	0.13	0.163	0.204	0.153	0.282	0.234	0.303	0.319	0.287
HOP-62	0.934	0.58	0.556	0.583	0.637	0.441	0.362	0.363	0.41	0.264	0.646	0.569	0.533	0.659	0.782	0.223	0.278	0.195	0.251	0.321
IA-LM	0.418	0.424	0.256	0.478	0.441	–	–	–	–	–	0.718	0.395	0.377	0.272	0.432	–	–	–	–	–
LCLC-103H	1.1	0.943	1.03	0.841	0.818	0.459	0.451	0.4	0.446	0.322	–	–	–	–	–	0.682	0.682	0.633	0.58	0.653
NCI-H441	0.881	0.65	0.606	0.766	0.723	0.521	0.643	0.636	0.555	0.54	–	–	–	–	–	0.257	0.243	0.194	0.261	0.29
NCI-H522	–	–	–	–	–	0.584	0.432	0.409	0.505	0.458	–	–	–	–	–	0.594	0.677	0.517	0.684	0.537
NCI-H1299	0.953	0.967	0.968	0.936	1.09	–	–	–	–	–	0.975	1.06	0.974	0.994	1	–	–	–	–	–
NCI-H1395	–	–	–	–	–	0.56	0.56	0.493	0.523	0.507	0.886	0.755	0.585	0.614	0.869	0.59	0.6	0.563	0.574	0.6
NCI-H1563	0.673	0.654	0.682	0.684	0.692	–	–	–	–	–	0.785	0.839	0.758	0.769	0.817	–	–	–	–	–
NCI-H1648	–	–	–	–	–	0.41	0.776	0.585	0.549	0.388	–	–	–	–	–	0.484	0.423	0.383	0.405	0.399
NCI-H1703	0.344	0.316	0.276	0.395	0.454	–	–	–	–	–	0.569	0.481	0.548	0.489	0.847	–	–	–	–	–
NCI-H1792	0.865	0.769	0.724	0.583	0.644	–	–	–	–	–	0.637	0.656	0.679	0.593	0.734	0.396	0.338	0.249	0.276	0.199
NCI-H1793	–	–	–	–	–	0.253	0.197	0.234	0.203	0.188	0.316	0.337	0.378	0.352	0.278	0.283	0.262	0.339	0.344	0.263
NCI-H2228	0.331	0.254	0.281	0.303	0.328	0.23	0.244	0.271	0.211	0.137	0.89	0.7	0.705	0.582	0.793	–	–	–	–	–
NCI-H2342	–	–	–	–	–	0.557	0.4	0.435	0.352	0.407	–	–	–	–	–	0.652	0.534	0.474	0.512	0.537
SW 900	–	–	–	–	–	0.332	0.462	0.442	0.404	0.448	–	–	–	–	–	0.434	0.404	0.4	0.406	0.439

Source: the supplement of paper PMC10307832
